In patent US9150523B2, “Piperazine derivatives, methods for preparing same, and uses thereof in the treatment of insulin resistance” (METABOLYS, priority 2011, dated 2015):

Test system: db/db mouse
Assay: Antidiabetic activity in db/db mouse (drop in glycaemia after oral administration)
Assay type: in vivo
Settings: 8 weeks old, 200 mg/kg per os
Experimental: The antidiabetic activity of the compound of formula (I) orally on a type 2 diabetes animal model, the db/db mouse, was tested. Diabetic mice are used at the age of 8 weeks; they then have very high hyperglycaemia. The animals are stabilised at a minimum for one week after reception and up to the day of experimentation in an animal house at a temperature regulated at 21°-22° C. and subjected to a fixed cycle of light (from 7 a.m. to 7 p.m.) and darkness (from 7 p.m. to 7 a.m.). Their food consisted of a maintenance regime; water and food were supplied “ad libitum”. The mice are treated orally with the product to be tested (200 mg/kg per os) in suspension in a mixture of water and methyl cellulose or the vehicle (mixture of water and methyl cellulose) in the morning of the day of the experimentation. Just before the administration of the product and one and two hours after the administration of the product, a blood sample (one drop of blood) is taken following a small incision in the tail for determining glycaemia. This glycaemia is measured by means of a glucometer (Lifescan OneTouch Ultra, LifeScan, Johnson-Johnson Company) and OneTouch Ultra glycaemia measurement strips.

SMILES: COc1ccccc1N1CCN(CCOc2ccc(CCCCC(=O)O)cc2)CC1.Cl [Compound 1]
- Drop in glycaemia (in % of the initial value) After 1 hour (1 hour after administration): 34%
- Drop in glycaemia (in % of the initial value) After 2 hours (2 hours after administration): 44%
